In US5002972A, “Compound and composition of substituted hexenoic acid derivatives useful for treating thromboxane A2 mediated diseases” (Shionogi & Co., Ltd., priority 1989, dated 1991):

Legend:
washed platelets [1] = assay: Inhibitory effect on collagen-induced platelet aggregation (antagonistic activity), rat washed platelets; format: cell-based; settings: 0.05 h, collagen 4 μg/ml as inducer, light transmission 3 minutes after inducer, read-out: Inhibition for Platelet Aggregation IC50
Experimental: (§1) From the abdominal artery of a male rat (Sprague-Dowley, 8 weeks old) was collected 10 ml of blood with a plastic syringe containing 1.5 ml of ACD (85 mM of sodium citrate, 70 mM of citric acid, 110 mM of glucose) and 20 μg of prostaglandin E1. The blood is placed in a plastic test tube, shaken moderately turning and centrifuged for 10 minutes at 160×g to give platelet rich plasma (PRP). To the prepared PRP was added apyrase (25 μg/ml) and the mixture was layered on 40% bovine serum albumin. The resulting mixture is centrifuged at 1200×g for 25 minutes. The platelet pellets suspended in a small amount of a buffer (137 mM of NaCl, 2.7 mM of KCl, 1.0 mM of MgCl2, 3.8 mM of NaH2 PO4, 3.8 mM of Hepes, 5.6 mM of glucose, 0.035% of bovine serum albumin, pH 7.35) was applied on 10 ml of Sephaose 2B column and eluted with such a buffer to prepare washed platelets.
(§2) The platelet aggregation reaction was measured by an aggregometer (NKK HEMA TRACER 1 MODEL PAT-6A.6M, Niko bioscience). In a measuring cuvette was placed 245 μl of the washed platelets of which platelet concentration was adjusted to 5×10^5 / μl and set in the aggregometer. The adjusted washed platelet was stirred (1000 rpm) at 37° C. and 3.8 μl of 0.1M of CaCl2 was added thereto. One minute later, 0.5 μl of a solution of a test compound in dimethylsulfoxide was added and 2 minutes later, 1 μl of collagen (Collagen reagent Horm®, HORMON-CHEMIE Munchen GMBH, final concentration 4 μg/ml) as an inducer for platelet aggregation was added. The platelet aggregation was monitored with an aggregometer in terms of the increase and decrease in light transmission.
Concentration of 50% inhibition was calculated from the inhibitory rate of aggregation (this correspondes to light transmission of a sample which is measured at 3 minutes after the addition of a platelet aggregating inducer, provided that light transmissions of the washed platelets and the buffer samples are taken as 0% and 100%, respectively.)

washed platelets [2] = assay: Partial agonistic activity (shape change of rat platelets); format: cell-based; settings: Platelet, decrease in light transmission by test compound itself, 50% of maximal agonistic activity of reference compound, read-out: Activity of Partial Agonist EC50
Experimental: as §1, §2
The measurement of partial agonistic activity was carried out according to the method shown for platelet aggregation. To the washed platelets was added 0.1M of CaCl2 and one minute later a test compound was added thereto. The decrease in light transmission caused by the test compound itself was measured to estimate the activity.

[3] = Acute toxicity, intravenous, mice; settings: mouse, in vivo, male SclddY mice, tail vein injection in saline, mortality within 24 hours, Probit method
Experimental: Male SclddY mice (4-weekage, 23-27 g) were used. Each experimental group consists of 5 animals. After injecting the test compound dissolved in saline into a tial vein, the mortality within 24 hours was obtained as an LD50 value by the Probit method.

| Compound | IC50 (washed platelets [1]) [nM] | EC50 (washed platelets [2]) [nM] | LD50 at 24 h [3] [mg/kg] |
| --- | --- | --- | --- |
| O=S(=O)(N[C@H]1[C@H]2CC[C@H](C2)[C@@H]1/C=C\CCCc1nnn[nH]1)c1ccccc1 [If-c, (1R,2R,3S,4S)-3-phenylsulfonylamino-2-[(1Z)-5-(5-tetrazolyl)-1-pentenyl]bicyclo[2.2.1]heptane] | 4 | > 1000 | 209 |
| O=C(O)CCC/C=C\[C@H]1[C@@H]2CC[C@@H](C2)[C@@H]1NS(=O)(=O)c1ccccc1 [Ia-c, (1R,2R,3S,4S)-sodium (5Z)-6-(3-phenylsulfonylaminobicyclo[2.2.1]hept-2-yl)-5-hexenoate] | 6 | > 1000 | 237 |
| Cc1ccc(S(=O)(=O)N[C@H]2[C@H]3CC[C@H](C3)[C@@H]2/C=C\CCCC(=O)O)cc1 [Ib-c, (1R,2R,3S,4S)-sodium (5Z)-6-[3-(p-tolylsulfonylamino)bicyclo[2.2.1]hept-2-yl]-5-hexenoate] | 6 | > 1000 | – |
| O=C(O)CCC/C=C\[C@H]1[C@@H]2CC[C@@H](C2)[C@@H]1NS(=O)(=O)c1ccc(O)cc1 [Ic-c, (1R,2R,3S,4S)-sodium (5Z)-6-[3-(4-hydroxyphenylsulfonylamino)bicyclo[2.2.1]hept-2-yl]-5-hexenoate] | 6 | 150 | – |
| O=C(O)CCC/C=C\[C@H]1[C@@H]2CC[C@@H](C2)[C@@H]1NS(=O)(=O)c1ccc(Br)cc1 [Id-c, (1R,2R,3S,4S)-sodium (5Z)-6-[3-(4-bromophenylsulfonylamino)bicyclo[2.2.1]hept-2-yl]-5-hexenoate] | 5 | 130 | – |
| Cc1ccc(S(=O)(=O)N[C@H]2[C@H]3CC[C@H](C3)[C@@H]2C/C=C\CCCC(=O)O)cc1 [Rf. Compd., reference compound] | 2 | 1 | – |
| O=C(O)CCC/C=C\[C@H]1[C@@H]2CC[C@@H](C2)[C@@H]1NS(=O)(=O)c1ccc(Cl)cc1 [Ie-c, (1R,2R,3S,4S)-sodium (5Z)-6-[3-(4-chlorophenylsulfonylamino)bicyclo[2.2.1]hept-2-yl]-5-hexenoate] | 5 | 300 | – |
